Measurements: US8207156B2, “Substituted pyrazoline compounds, their preparation and use as medicaments” (Laboratorios Del Dr. Esteve, S.A., priority 2005, dated 2012)

What follows are compounds tested against recombinant human cannabinoid 1 receptor (CB1) (Homo sapiens, UniProt P21554) (assay: In vitro determination of antagonism to CB1-receptor ([35S]GTPγS binding assay, CHO cell membranes)). Settings: compound at 1 μM against agonist WIN 55,212-2 (3 nM to 3 μM); effect of Rimonabant (1 μM) defined as 100%.
Sequence of recombinant human cannabinoid 1 receptor (CB1) (P21554 whole entry): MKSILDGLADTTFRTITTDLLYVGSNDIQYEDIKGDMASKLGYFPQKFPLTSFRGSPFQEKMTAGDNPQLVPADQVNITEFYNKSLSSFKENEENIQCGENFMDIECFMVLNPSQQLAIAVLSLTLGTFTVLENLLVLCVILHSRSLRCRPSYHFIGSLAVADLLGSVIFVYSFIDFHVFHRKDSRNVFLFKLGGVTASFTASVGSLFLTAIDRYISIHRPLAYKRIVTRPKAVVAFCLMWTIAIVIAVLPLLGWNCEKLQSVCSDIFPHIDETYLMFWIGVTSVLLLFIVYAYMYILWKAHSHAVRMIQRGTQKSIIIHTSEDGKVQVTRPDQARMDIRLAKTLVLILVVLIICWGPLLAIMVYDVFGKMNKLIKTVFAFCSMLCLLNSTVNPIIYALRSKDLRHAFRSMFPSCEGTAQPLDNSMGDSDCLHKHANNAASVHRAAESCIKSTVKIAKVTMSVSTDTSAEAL
Assay type: biochemical
Method: Chinese hamster ovary (CHO) cells stably expressing recombinant human cannabinoid 1 receptor (CB1) were cultured in nutrient mixture Ham's F 12 supplemented with 10% heat-inactivated fetal bovine serum, 2 mM L-glutamine, 50 U/ml penicillin, 50 U/ml streptomycin and 0.5 mg/ml geneticin. In order to obtain cells, culture flasks were washed twice with phosphate buffered saline and scraped. Then, cells were collected by centrifugation (200×g, 10 min) and stored dry at −80° C. Cells were homogenized in ice-cold 20 mM HEPES, 10 mM EDTA (pH 7.5) and centrifuged at 40,000×g for 15 min at 4° C. The membrane pellet was resuspended in 20 mM HEPES, 0.1 mM EDTA (pH 7.5) and centrifuged for 15 min at 4° C. The final membrane pellet was resuspended in 20 mM HEPES, 0.1 mM EDTA (pH 7.5), and divided in aliquots and stored at −80° C. until use.
The reaction was performed in 96-well plates. Membranes (15 μg protein/well) were incubated for 60 min at 30° C. in buffer (50 mM HEPES, 100 mM KCl, 5 mM MgCl2,1 mM EDTA, 0.1% wt/vol bovine serum albumin, 5 μM GDP, saponin (10 μg/ml), 0.5 nM [^35S]GTPγS, pH 7.4) with compound at a final concentration of 1 μM in either the absence or presence of agonist WIN 55, 212-2 between 3 nM and 3 μM. The incubation was terminated by rapid filtration through Millipore Multiscreen glass fiber FB, and rinsed two-times with ice-cold assay buffer. Filter plates were dried and 30 μl of scintillation liquid was added. Radioactivity was determined using a Wallac Microbeta Trilux. Each experiment was performed at least in duplicate. A WIN 55, 212-2 dose-response experiment either alone or in the presence of Rimonabant (1 μM) was systematically performed.
The average of basal [^35S]GTPγS binding was subtracted from all binding data. In order to compare the antagonism results from one screening campaign to another one, the difference between the maximal agonist effect of WIN 55, 212-2 alone, and the maximal antagonism effect due to WIN 55, 212-2 plus Rimonabant (1 μM) was defined as 100%.

Point of comparison: `O=C(NC1CCCCCCCCCCC1)C1=NN(c2ccc(Cl)cc2Cl)C(c2ccc(Cl)cc2)C1` (stereo not shown) [Example 49, 5-(4-Chloro-phenyl)-1-(2,4-dichloro-phenyl)-4,5-dihydro-1H-pyrazole-3-carboxylic acid cyclododecylamide], “Antagonism [%]” value 14%. Against it:
- Cl.O=C(NN1CCOCC1)C1=NN(c2ccc(Cl)cc2Cl)C(c2ccc(Cl)cc2)C1 (stereo not shown) [Example 9, 5-(4-Chloro-phenyl)-1-(2,4-dichloro-phenyl)-4,5-dihydro-1H-pyrazole-3-carboxylic acid morpholin-4-ylamide hydrochloride] — higher, 53%
- O=C(NN1CC2CCCC2C1)C1=NN(c2ccc(Cl)cc2Cl)C(c2ccc(Cl)cc2)C1 (stereo not shown) [Example 10, 5-(4-Chloro-phenyl)-1-(2,4-dichloro-phenyl)-4,5-dihydro-1H-pyrazole-3-carboxylic acid (hexahydro-cyclopenta[c]pyrrol-2-yl)-amide] — higher, 119%
- COC(C)(C)[C@@H]1CCCN1NC(=O)C1=NN(c2ccc(Cl)cc2Cl)C(c2ccc(Cl)cc2)C1 (stereo partly shown) [Example 15, 5-(4-Chloro-phenyl)-1-(2,4-dichloro-phenyl)-4,5-dihydro-1H-pyrazole-3-carboxylic acid [2-(1-methoxy-1-methyl-ethyl)-pyrrolidin-1-yl]-amide] — lower, 6%
- CC1CCC(NC(=O)C2=NN(c3ccc(Cl)cc3Cl)C(c3ccc(Cl)cc3)C2)CC1 (stereo not shown) [Example 17, 5-(4-Chloro-phenyl)-1-(2,4-dichloro-phenyl)-4,5-dihydro-1H-pyrazole-3-carboxylic acid (4-methyl-cyclohexyl)-amide] — higher, 65%
- CCCCCCNC(=O)C1=NN(c2ccc(Cl)cc2Cl)C(c2ccc(Cl)cc2)C1 (stereo not shown) [Example 20, 5-(4-Chloro-phenyl)-1-(2,4-dichloro-phenyl)-4,5-dihydro-1H-pyrazole-3-carboxylic acid hexylamide] — higher, 61%
- O=C(C1=NN(c2ccc(Cl)cc2Cl)C(c2ccc(Cl)cc2)C1)N1CCN(C2CCCCC2)CC1 (stereo not shown) [Example 21, [5-(4-Chloro-phenyl)-1-(2,4-dichloro-phenyl)-4,5-dihydro-1H-pyrazol-3-yl]-(4-cyclohexyl-piperazin-1-yl)-methanone] — higher, 66%
- O=C(NN1C(=O)c2cccc3cccc(c23)C1=O)C1=NN(c2ccc(Cl)cc2Cl)C(c2ccc(Cl)cc2)C1 (stereo not shown) [Example 24, 5-(4-Chloro-phenyl)-1-(2,4-dichloro-phenyl)-4,5-dihydro-1H-pyrazole-3-carboxylic acid (1,3-dioxo-1H,3H-benzo[de]isoquinolin-2-yl)-amide] — higher, 27%
- O=C(NN1Cc2cccc3cccc(c23)C1)C1=NN(c2ccc(Cl)cc2Cl)C(c2ccc(Cl)cc2)C1 (stereo not shown) [Example 25, 5-(4-Chloro-phenyl)-1-(2,4-dichloro-phenyl)-4,5-dihydro-1H-pyrazole-3-carboxylic acid (1H,3H-benzo[de]isoquinolin-2-yl)-amide] — lower, 7%
- O=C(NN1CCN(C2CCCC2)CC1)C1=NN(c2ccc(Cl)cc2Cl)C(c2ccc(Cl)cc2)C1 (stereo not shown) [Example 26, 5-(4-Chloro-phenyl)-1-(2,4-dichloro-phenyl)-4,5-dihydro-1H-pyrazole-3-carboxylic acid (4-cyclopentyl-piperazin-1-yl)-amide] — higher, 52%
- O=C(NN1CCc2ccccc21)C1=NN(c2ccc(Cl)cc2Cl)C(c2ccc(Cl)cc2)C1 (stereo not shown) [Example 28, 5-(4-Chloro-phenyl)-1-(2,4-dichloro-phenyl)-4,5-dihydro-1H-pyrazole-3-carboxylic acid (2,3-dihydro-indol-1-yl)-amide] — higher, 63%
- O=C(NC1CCC1)C1=NN(c2ccc(Cl)cc2Cl)C(c2ccc(Cl)cc2)C1 (stereo not shown) [Example 30, 5-(4-Chloro-phenyl)-1-(2,4-dichloro-phenyl)-4,5-dihydro-1H-pyrazole-3-carboxylic acid cyclobutylamide] — higher, 54%
- CCN(C(=O)C1=NN(c2ccc(Cl)cc2Cl)C(c2ccc(Cl)cc2)C1)C1CCCCC1 (stereo not shown) [Example 33, 5-(4-Chloro-phenyl)-1-(2,4-dichloro-phenyl)-4,5-dihydro-1H-pyrazole-3-carboxylic acid cyclohexyl-ethyl-amide] — lower, 2%
- O=C(NC1CCCCCCC1)C1=NN(c2ccc(Cl)cc2Cl)C(c2ccc(Cl)cc2)C1 (stereo not shown) [Example 34, 5-(4-Chloro-phenyl)-1-(2,4-dichloro-phenyl)-4,5-dihydro-1H-pyrazole-3-carboxylic acid cyclooctylamide] — higher, 60%
- CCCCCC(C)NC(=O)C1=NN(c2ccc(Cl)cc2Cl)C(c2ccc(Cl)cc2)C1 (stereo not shown) [Example 35, 5-(4-Chloro-phenyl)-1-(2,4-dichloro-phenyl)-4,5-dihydro-1H-pyrazole-3-carboxylic acid (1-methyl-hexyl)-amide] — higher, 68%
- O=C(NC1CC1)C1=NN(c2ccc(Cl)cc2Cl)C(c2ccc(Cl)cc2)C1 (stereo not shown) [Example 36, 5-(4-Chloro-phenyl)-1-(2,4-dichloro-phenyl)-4,5-dihydro-1H-pyrazole-3-carboxylic acid cyclopropylamide] — lower, −5%
- O=C(C1=NN(c2ccc(Cl)cc2Cl)C(c2ccc(Cl)cc2)C1)N1CCCCCCC1 (stereo not shown) [Example 38, Azocan-1-yl-[5-(4-chloro-phenyl)-1-(2,4-dichloro-phenyl)-4,5-dihydro-1H-pyrazol-3-yl]-methanone] — higher, 45%
- O=C(C1=NN(c2ccc(Cl)cc2Cl)C(c2ccc(Cl)cc2)C1)N1Cc2ccccc2C1 (stereo not shown) [Example 39, [5-(4-Chloro-phenyl)-1-(2,4-dichloro-phenyl)-4,5-dihydro-1H-pyrazol-3-yl]-(1,3-dihydro-isoindol-2-yl)-methanone] — higher, 62%
- O=C(C1=NN(c2ccc(Cl)cc2Cl)C(c2ccc(Cl)cc2)C1)N1CCC1 (stereo not shown) [Example 40, Azetidin-1-yl-[5-(4-chloro-phenyl)-1-(2,4-dichloro-phenyl)-4,5-dihydro-1H-pyrazol-3-yl]-methanone] — higher, 32%
- O=C(C1=NN(c2ccc(Cl)cc2Cl)C(c2ccc(Cl)cc2)C1)N1CCC(N2CCCCC2)CC1 (stereo not shown) [Example 42, [1,4′]Bipiperidinyl-1′-yl-[5-(4-chloro-phenyl)-1-(2,4-dichloro-phenyl)-4,5-dihydro-1H-pyrazol-3-yl]-methanone] — lower, −13%
- CN1CCN(C(=O)C2=NN(c3ccc(Cl)cc3Cl)C(c3ccc(Cl)cc3)C2)CC1 (stereo not shown) [Example 43, [5-(4-Chloro-phenyl)-1-(2,4-dichloro-phenyl)-4,5-dihydro-1H-pyrazol-3-yl]-(4-methyl-piperazin-1-yl)-methanone] — higher, 25%
- CCOC(=O)N1CCN(C(=O)C2=NN(c3ccc(Cl)cc3Cl)C(c3ccc(Cl)cc3)C2)CC1 (stereo not shown) [Example 44, 4-[5-(4-Chloro-phenyl)-1-(2,4-dichloro-phenyl)-4,5-dihydro-1H-pyrazole-3-carbonyl]-piperazine-1-carboxylic acid ethyl ester] — higher, 39%
- O=C(C1=NN(c2ccc(Cl)cc2Cl)C(c2ccc(Cl)cc2)C1)N1CCc2ccccc2C1 (stereo not shown) [Example 45, [5-(4-Chloro-phenyl)-1-(2,4-dichloro-phenyl)-4,5-dihydro-1H-pyrazol-3-yl]-(3,4-dihydro-1H-isoquinolin-2-yl)-methanone] — higher, 59%
- CC1CCCCN1C(=O)C1=NN(c2ccc(Cl)cc2Cl)C(c2ccc(Cl)cc2)C1 (stereo not shown) [Example 46, [5-(4-Chloro-phenyl)-1-(2,4-dichloro-phenyl)-4,5-dihydro-1H-pyrazol-3-yl]-(2-methyl-piperidin-1-yl)-methanone] — higher, 53%
- CN(C(=O)C1=NN(c2ccc(Cl)cc2Cl)C(c2ccc(Cl)cc2)C1)C1CCCCC1 (stereo not shown) [Example 47, 5-(4-Chloro-phenyl)-1-(2,4-dichloro-phenyl)-4,5-dihydro-1H-pyrazole-3-carboxylic acid cyclohexyl-methyl-amide] — higher, 28%
- CC(C)N(C(=O)C1=NN(c2ccc(Cl)cc2Cl)C(c2ccc(Cl)cc2)C1)C(C)C (stereo not shown) [Example 50, 5-(4-Chloro-phenyl)-1-(2,4-dichloro-phenyl)-4,5-dihydro-1H-pyrazole-3-carboxylic acid diisopropylamide] — higher, 18%
- CN(C)C(=O)C1=NN(c2ccc(Cl)cc2Cl)C(c2ccc(Cl)cc2)C1 (stereo not shown) [Example 51, 5-(4-Chloro-phenyl)-1-(2,4-dichloro-phenyl)-4,5-dihydro-1H-pyrazole-3-carboxylic acid dimethylamide] — higher, 21%
- O=C(O)[C@@H]1CCCN1C(=O)C1=NN(c2ccc(Cl)cc2Cl)C(c2ccc(Cl)cc2)C1 (stereo partly shown) [Example 53, 1-[5-(4-Chloro-phenyl)-1-(2,4-dichloro-phenyl)-4,5-dihydro-1H-pyrazole-3-carbonyl]-pyrrolidine-2-carboxylic acid] — the same, 14%
